These results are taken from ChEMBL document CHEMBL4651402, “Screening of ~5500 FDA-approved drugs and clinical candidates for anti-SARS-CoV-2 activity” (2021).

In this experiment the test system is SARS-CoV-2. Put plainly: microbe, parasite or virus in culture. As to conditions: Severe acute respiratory syndrome coronavirus 2, Vero C1008, 48 h.

`COc1cc(/C=C2\CCC/C(=C\c3ccc(O)c(OC)c3)C2=O)ccc1O` [CYCLOVALONE]: the IC50 is greater than 20 µM. For the setting “read-out: pIC50 (converted)”, the IC50 was greater than 20 µM.
Take `CCC12CCN(CC3CCC3)[C@@H](Cc3ccc(O)cc31)C2(C)C`: the IC50 was greater than 20 µM. Further, the IC50 (read-out: pIC50 (converted)) is greater than 20 µM.
As for `O=C(c1ccc2nccnc2c1)N1CCCCC1` [CX516], the IC50 is greater than 20 µM. Besides, the IC50 (read-out: pIC50 (converted)) was greater than 20 µM.
As to `CC(=O)OCC(=O)[C@@]1(O)CC[C@H]2[C@@H]3CCC4=CC(=O)CC[C@]4(C)[C@H]3C(=O)C[C@@]21C` [CORTISONE ACETATE], the IC50 is greater than 20 µM. Under “read-out: pIC50 (converted)”, the IC50 is greater than 20 µM.
As to `Fc1ccc(CN2CCC(Nc3ccc(C(F)(F)F)nn3)CC2)cc1F` [JNJ-37822681], the IC50 is greater than 20 µM. The IC50 (read-out: pIC50 (converted)) was greater than 20 µM.
In the case of `CN1[C@@H]2CC(=O)C[C@H]1[C@H](O)C2`, the IC50 was greater than 20 µM. Also, the IC50 (read-out: pIC50 (converted)) was greater than 20 µM.
Take `Cc1nc2ccccn2c(=O)c1CCN1CCc2oc3ccccc3c2C1` [LUSAPERIDONE]: the IC50 was greater than 20 µM. Under “read-out: pIC50 (converted)”, the IC50 was greater than 20 µM.
Consider `O=C(O)c1ccccc1Nc1ccccc1` [FENAMIC ACID], for which the IC50 was greater than 20 µM. For the same compound, the IC50 (read-out: pIC50 (converted)) is greater than 20 µM.
`C[Si](C)(C)c1cccc(C(=O)C(F)(F)F)c1` displayed an IC50 greater than 20 µM. For the same compound, the IC50 (read-out: pIC50 (converted)) was greater than 20 µM.
`COCC1=C(C(=O)OC(C)OC(=O)OC(C)C)N2C(=O)[C@@H](NC(=O)/C(=N\OC)c3csc(N)n3)[C@H]2SC1` (some centres not stated) [CEFPODOXIME PROXETIL] yielded an IC50 greater than 20 µM. The IC50 (read-out: pIC50 (converted)) is greater than 20 µM.
Take `CN1CCN(c2cc3c(cc2F)c(=O)c(C(=O)O)cn3-c2ccc(F)cc2)CC1` [DIFLOXACIN]: the IC50 is greater than 20 µM. In addition, the IC50 (read-out: pIC50 (converted)) is greater than 20 µM.
For the compound `Cc1ccccc1C(=O)Nc1ccc(C(=O)N2CCCC(N(C)C)c3ccccc32)cc1` (configuration not stated) [MOZAVAPTAN], the IC50 was greater than 20 µM. Under “read-out: pIC50 (converted)”, the IC50 was greater than 20 µM.
In turn, `CC12C=CC(=O)C=C1C(F)CC1C2C(O)CC2(C)C1CCC2(O)C(=O)CO` (configuration not stated) yielded an IC50 greater than 20 µM. Further, the IC50 (read-out: pIC50 (converted)) is greater than 20 µM.
`OCc1cccnc1` [NICOTINYL ALCOHOL] showed an IC50 greater than 20 µM. Also, the IC50 (read-out: pIC50 (converted)) is greater than 20 µM.
Consider `[N-]=[N+]=N[C@]1(CO)O[C@@H](n2ccc(N)nc2=O)[C@H](O)[C@@H]1O` [4'-AZIDOCYTIDINE], for which the IC50 was greater than 20 µM. Further, the IC50 (read-out: pIC50 (converted)) was greater than 20 µM.
In the case of `CCS(=O)(=O)CCn1c([N+](=O)[O-])cnc1C` [TINIDAZOLE], the IC50 is greater than 20 µM. Moreover, the IC50 (read-out: pIC50 (converted)) was greater than 20 µM.
`CC(=O)SC[C@@H](C)C(=O)N1CCC[C@H]1C(=O)N[C@@H](Cc1ccccc1)C(=O)O` came in with an IC50 greater than 20 µM. In addition, the IC50 (read-out: pIC50 (converted)) was greater than 20 µM.
On to `CCOCN1C2=C(C(=O)Nc3ccccc3F)C(=O)CCN2c2ccc(F)cc21`, for which the IC50 was greater than 20 µM. Under “read-out: pIC50 (converted)”, the IC50 is greater than 20 µM.
The compound `CC(N)C(=O)OC(C)(C)Cc1ccc(Cl)cc1` (configuration not stated) [ALAPROCLATE] gave an IC50 greater than 20 µM. For the same compound, where the note is “read-out: pIC50 (converted)”, the IC50 was greater than 20 µM.
For `CN1Cc2cc(C3=NNC(=O)CC3)ccc2NC1=O` [PRINOXODAN], the IC50 is greater than 20 µM. The IC50 (read-out: pIC50 (converted)) is greater than 20 µM.
The compound `Nc1nc(=O)n([C@@H]2C=C[C@H](CO)O2)cc1F` [ELVUCITABINE] displayed an IC50 greater than 20 µM. Also, the IC50 (read-out: pIC50 (converted)) was greater than 20 µM.
Take `CCN(CC)CCNC(=O)c1cc(S(C)(=O)=O)ccc1OC` [TIAPRIDE]: the IC50 was greater than 20 µM. In addition, where the note is “read-out: pIC50 (converted)”, the IC50 is greater than 20 µM.
Take `N[C@@H](CS)C(=O)O` [CYSTEINE]: the IC50 was greater than 20 µM. For the same compound, where the note is “read-out: pIC50 (converted)”, the IC50 was greater than 20 µM.
`CCOCn1c(Cc2ccccc2)c(C(C)C)c(=O)[nH]c1=O` [EMIVIRINE] had an IC50 greater than 20 µM. Moreover, the IC50 (read-out: pIC50 (converted)) is greater than 20 µM.
On to `O=C(Nc1cccc(C2=NCCN2)c1)Nc1cccc(C2=NCCN2)c1` [IMIDOCARB], for which the IC50 was greater than 20 µM. The IC50 (read-out: pIC50 (converted)) is greater than 20 µM.
`CC(C)CCCC(C)C1CCC2C3CC[C@H]4CC(O)CCC4(C)C3CCC12C` (some centres not stated) displayed an IC50 greater than 20 µM. Also, the IC50 (read-out: pIC50 (converted)) is greater than 20 µM.
